This is an account of results in US12077483B2, “Modified amine lipids” (Intellia Therapeutics, Inc., priority 2018, dated 2024).

Some results are limits rather than exact numbers.

For orientation: pKa means the pH at which an ionisable group is half protonated.

A short description of data set [1]: pKa of amine lipid by TNS fluorescence. It is filed as physicochemical. The settings on record: probe TNS (6-(p-toluidino)-2-naphthalenesulfonic acid sodium salt), unformulated amine lipid in ethanol, sodium phosphate buffers -9.0. As to the method:
The pKa of each amine lipid was determined according to the method in Jayaraman, et al. (Angewandte Chemie, 2012) with the following adaptations. The pKa was determined for unformulated amine lipid in ethanol. Lipid stock solutions (2.94 mM) were diluted into Sodium Phosphate Buffers (0.1 M, Boston Bioproducts) of different pH (pH-range: 4.5-9.0) yielding a final lipid concentration of approx. 100 μM. The test samples were supplemented with TNS {6-(p-Toluidino)-2-naphthalenesulfonic acid sodium salt}, incubated and the fluorescence intensity was measured using excitation and emission wavelengths of 321 nm and 448 nm, respectively. The recorded data were normalized and the respective pKa values were derived from sigmoidal fitting.

Data set [2] has as its system mouse TTR. In words: Serum TTR ELISA in mice after LNP delivery. It is filed as in vivo. Particulars: mouse serum, relative to TSS control of same experiment. As to the method: For studies measuring in vivo editing in liver, CD-1 female mice were dosed at 0.1 mpk unless otherwise noted. Animals were euthanized at 6 or 7 days by exsanguinationvia cardiac puncture under isoflourane anesthesia. Liver tissue was collected from each animal for DNA extraction and analysis. Blood was collected into serum separator tubes or into tubes containing buffered sodium citrate for plasma as described herein. Cohorts of mice were measured for editing by Next-Generation Sequencing (NGS).
Blood was collected and the serum was isolated as indicated. The total mouse TTR serum levels were determined using a Mouse Prealbumin (Transthyretin) ELISA Kit (Aviva Systems Biology, Cat. OKIA00111). Briefly, sera were serial diluted with kit sample diluent, e.g. to a final dilution of 10,000-fold and/or 2,500-fold. The diluted sample was then added to the ELISA plates and the assay was then carried out according to directions. Serum TTR data from treatment groups are expressed as a percentage of vehicle control levels.

Turning to `CCCCC/C=C\C/C=C\CCCCCCCC(=O)OCC(COC(=O)CCCCCCC/C=C\C/C=C\CCCCC)OC(=O)CCC(CCCCCCCCCCCC)OC(=O)OCCCN(CC)CC` (centres unmarked) [Compound 2, 2-((4-(((3-(diethylamino)propoxy)carbonyl)oxy)hexadecanoyl)oxy)propane-1,3-diyl (9Z,9′Z,12Z,12′Z)-bis(octadeca-9,12-dienoate)], in data set [1], the pKa stood at 5.28.
On to `CCCCC/C=C\C/C=C\CCCCCCCC(=O)OCC(COC(=O)CCCCCCC/C=C\C/C=C\CCCCC)OC(=O)CCC(CCCCCCCCCCCC)OC(=O)OCCN(C)C` (centres unmarked) [Compound 4, 2-((4-(((2-(dimethylamino)ethoxy)carbonyl)oxy)hexadecanoyl)oxy)propane-1,3-diyl (9Z,9′Z,12Z,12′Z)-bis(octadeca-9,12-dienoate)], for which the “Serum TTR % TSS” value in data set [2] (dose 0.03 mpk) is recorded as 73.09 % TSS. Moreover, the pKa in data set [1] is < 5.
Consider `CCCCC/C=C\C/C=C\CCCCCCCC(=O)OCC(COC(=O)CCCCCCC/C=C\C/C=C\CCCCC)OC(=O)CCC(CCCCCCCCCCCC)OC(=O)NCCCN(CC)CC` (centres unmarked) [Compound 13, 2-((4-(((3-(diethylamino)propyl)carbamoyl)oxy)hexadecanoyl)oxy)propane-1,3-diyl (9Z,9′Z,12Z,12′Z)-bis(octadeca-9,12-dienoate)], for which the pKa in data set [1] came out at 7.2.
The same measure, in the same setting: next, `CCCCC/C=C\C/C=C\CCCCCCCC(=O)OCC(COC(=O)CCCCCCC/C=C\C/C=C\CCCCC)OC(=O)CCC(CCCCCCCC)OC(=O)N(C)CCN(C)CC` (centres unmarked) [Compound 37, 2-((4-(((2-(ethyl(methyl)amino)ethyl)(methyl)carbamoyl)oxy)dodecanoyl)oxy) propane-1,3-diyl (9Z,9′Z,12Z,12′Z)-bis(octadeca-9,12-dienoate)]: 5.36; `CCCCC/C=C\C/C=C\CCCCCCCC(=O)OCC(COC(=O)CCCCCCC/C=C\C/C=C\CCCCC)OC(=O)CCCOC(=O)NCCN(C)CC` [Compound 43, 2-((4-(((2-(ethyl(methyl)amino)ethyl)carbamoyl)oxy)butanoyl)oxy)propane-1,3-diyl (9Z,9′Z,12Z,12′Z)-bis(octadeca-9,12-dienoate)]: 7.33.
Take `CCCCC/C=C\C/C=C\CCCCCCCC(=O)OCC(COC(=O)CCCCCCC/C=C\C/C=C\CCCCC)COC(=O)CCC(CCCCCCCC)OC(=O)NCCN(C)CC` (centres unmarked) [Compound 54, 2-(12-methyl-6-octyl-3,8-dioxo-2,7-dioxa-9,12-diazatetradecyl)propane-1,3-diyl (9Z,9′Z,12Z,12′Z)-bis(octadeca-9,12-dienoate)]: the “Serum TTR % TSS” value in data set [2] (dose 0.1 mpk) is 18.32 % TSS. For the same molecule, the pKa in data set [1] turned out to be 6.25.
On the same counts, the results for `CCCCCCCCCCOC(=O)CCCCCCCC(=O)OCC(COC(=O)CCCCCCCC(=O)OCCCCCCCCCC)OC(=O)CC(CCCCCCCC)OC(=O)NCCN(C)CC` (centres unmarked) [Compound 56, 9,9′-didecyl O′1,O1-(2-((3-(((2-(ethyl(methyl)amino)ethyl)carbamoyl)oxy)undecanoyl)oxy)propane-1,3-diyl) di(nonanedioate)] are 69.70 % TSS and 6.28.
As to `CCCCCCCCCCOC(=O)CCCCCCCC(=O)OCC(COC(=O)CCCCCCCC(=O)OCCCCCCCCCC)OC(=O)CCCC(CCCCCCCC)OC(=O)NCCN(C)CC` (centres unmarked) [Compound 58], the pKa in data set [1] is 6.32.
The same measure, in the same setting: next, `CCCCC/C=C\C/C=C\CCCCCCCC(=O)OCC(COC(=O)CCCCCCC/C=C\C/C=C\CCCCC)OC(=O)CCC(CCCCC(C)C)OC(=O)NCCN(C)CC` (centres unmarked) [Compound 80, 2-((4-(((2-(ethyl(methyl)amino)ethyl)carbamoyl)oxy)-9-methyldecanoyl)oxy)propane-1,3-diyl (9Z,9′Z,12Z,12′Z)-bis(octadeca-9,12-dienoate)]: 6.41; `CCCCC/C=C\C/C=C\CCCCCCCC(=O)OCC(COC(=O)CCCCCCC/C=C\C/C=C\CCCCC)OC(=O)CCC(CCCCCC(C)C)OC(=O)NCCN(C)CC` (centres unmarked) [Compound 81, 2-((4-(((2-(ethyl(methyl)amino)ethyl)carbamoyl)oxy)-10-methylundecanoyl)oxy)propane-1,3-diyl (9Z,9′Z,12Z,12′Z)-bis(octadeca-9,12-dienoate)]: 6.42; `CCCCC/C=C\C/C=C\CCCCCCCC(=O)OCC(COC(=O)CCCCCCC/C=C\C/C=C\CCCCC)OC(=O)CCC(CCCCC(C)C)OC(=O)NCCN1CCCC1` (centres unmarked) [Compound 82, 2-((9-methyl-4-(((2-(pyrrolidin-1-yl)ethyl)carbamoyl)oxy)decanoyl)oxy)propane-1,3-diyl (9Z,9′Z,12Z,12′Z)-bis(octadeca-9,12-dienoate)]: 6.71.
Same read-out and setting: next, `CCCCC/C=C\C/C=C\CCCCCCCC(=O)OCC(COC(=O)CCCCCCC/C=C\C/C=C\CCCCC)OC(=O)CCC(CCCCCC(C)C)OC(=O)NCCN1CCCC1` (centres unmarked) [Compound 83, 2-((10-methyl-4-(((2-(pyrrolidin-1-yl)ethyl)carbamoyl)oxy)undecanoyl)oxy)propane-1,3-diyl (9Z,9′Z,12Z,12′Z)-bis(octadeca-9,12-dienoate)]: 6.61.
Regarding `CCCCC/C=C\C/C=C\CCCCCCCC(=O)OCC(COC(=O)CCCCCCC/C=C\C/C=C\CCCCC)COC(=O)C(C)(C)C(CCCCCCCC)OC(=O)NCCN(C)CC` (centres unmarked) [Compound 99, 2-(4,4,11-trimethyl-5-octyl-3,7-dioxo-2,6-dioxa-8,11-diazatridecyl)propane-1,3-diyl (9Z,9′Z,12Z,12′Z)-bis(octadeca-9,12-dienoate)], the “Serum TTR % TSS” value worked out at 92.42 % TSS in data set [2] (dose 0.03 mpk) and 42.87 % TSS in data set [2] (dose 0.1 mpk). Also, the pKa in data set [1] was determined as 5.96.
Consider `CCCCC/C=C\C/C=C\CCCCCCCC(=O)OCC(COC(=O)CCCCCCC/C=C\C/C=C\CCCCC)OC(=O)CCC(CCCCCC)OC(=O)OCCCN1CCC1` (centres unmarked) [Compound 101, 2-((4-(((3-(azetidin-1-yl)propoxy)carbonyl)oxy)decanoyl)oxy)propane-1,3-diyl (9Z,9′Z,12Z,12′Z)-bis(octadeca-9,12-dienoate)], for which the pKa in data set [1] came to 6.75.
On the same count and under the same terms, next, `CCCCC/C=C\C/C=C\CCCCCCCC(=O)OCC(COC(=O)CCCCCCC/C=C\C/C=C\CCCCC)OC(=O)CCC(CCCCCC)OC(=O)OCCCN1CCCCC1` (centres unmarked) [Compound 102, 2-((4-(((3-(piperidin-1-yl)propoxy)carbonyl)oxy)decanoyl)oxy)propane-1,3-diyl (9Z,9′Z,12Z,12′Z)-bis(octadeca-9,12-dienoate)]: 5.16.
For the molecule `CCCCC/C=C\C/C=C\CCCCCCCC(=O)OCC(COC(=O)CCCCCCC/C=C\CCCCCCCC)OC(=O)CCC(CCCC)OC(=O)NCCN1CCCC1` (centres unmarked) [Compound 109, 3-(oleoyloxy)-2-((4-(((2-(pyrrolidin-1-yl)ethyl)carbamoyl)oxy)octanoyl)oxy)propyl (9Z,12Z)-octadeca-9,12-dienoate], in data set [1], the pKa was 6.91.
For `CCCCCCCC/C=C\CCCCCCCC(=O)OCC(COC(=O)CCCCCCC/C=C\CCCCCCCC)OC(=O)CCC(CCCC)OC(=O)NCCN1CCCC1` (centres unmarked) [Compound 110, 2-((4-(((2-(pyrrolidin-1-yl)ethyl)carbamoyl)oxy)octanoyl)oxy)propane-1,3-diyl dioleate], in data set [1], the pKa was 7.01.
The same measure, in the same setting: next, `CCCCC/C=C\C/C=C\CCCCCCCC(=O)OCC(COC(=O)CCC(CCCC)OC(=O)NCCN1CCCC1)OC(=O)CCCCCCC/C=C\C/C=C\CCCCC` (centres unmarked) [Compound 111, 3-((4-(((2-(pyrrolidin-1-yl)ethyl)carbamoyl)oxy)octanoyl)oxy)propane-1,2-diyl (9Z,9′Z,12Z,12′Z)-bis(octadeca-9,12-dienoate)]: 7.02; `CCCCC/C=C\C/C=C\CCCCCCCC(=O)OCC(COC(=O)CCCCCCC/C=C\C/C=C\CCCCC)COC(=O)CCC(CCCC)OC(=O)NCCN1CCCC1` (centres unmarked) [Compound 112, 2-(((4-(((2-(pyrrolidin-1l-yl)ethyl)carbamoyl)oxy)octanoyl)oxy)methyl)propane-1,3-diyl (9Z,9′Z,12Z,12′Z)-bis(octadeca-9,12-dienoate)]: 7.02; `CCCCC/C=C\C/C=C\CCCCCCCC(=O)OCC(COC(=O)CCCCCCC/C=C\C/C=C\CCCCC)COC(=O)CC(CCCC)OC(=O)NCCN1CCCC1` (centres unmarked) [Compound 113, 2-(((3-(((2-(pyrrolidin-1-yl)ethyl)carbamoyl)oxy)heptanoyl)oxy)methyl)propane-1,3-diyl (9Z,9′Z,12Z,12′Z)-bis(octadeca-9,12-dienoate)]: 7.02.
Consider `CCCCC/C=C\C/C=C\CCCCCCCC(=O)OCC(COC(=O)CCCCCCC/C=C\C/C=C\CCCCC)OC(=O)CCC(CCCCCCCCCCCC)OC(=O)OC1CCN(C)CC1` (centres unmarked) [f47], for which the pKa in data set [1] worked out at 5.99.
